The target of the test is T1, FYN A (Homo sapiens, UniProt P06241).
T1 construct: purchased Thermo Fisher Scientific (Life Technologies) SelectScreen
The test can be described thus: SelectScreen LanthaScreen. As to conditions: read-out: % displacement. The format is binding. The gist of the method:
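SelectScreen broad panel; activity (Z'LYTE, Adapta) plus binding formats. ATP: Km app for CSF1R Z'LYTE; 10 for CAMK1 Adapta. Readout = % per kinase.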

The structures appear in SMILES notation.

T1 sequence (P06241 whole entry): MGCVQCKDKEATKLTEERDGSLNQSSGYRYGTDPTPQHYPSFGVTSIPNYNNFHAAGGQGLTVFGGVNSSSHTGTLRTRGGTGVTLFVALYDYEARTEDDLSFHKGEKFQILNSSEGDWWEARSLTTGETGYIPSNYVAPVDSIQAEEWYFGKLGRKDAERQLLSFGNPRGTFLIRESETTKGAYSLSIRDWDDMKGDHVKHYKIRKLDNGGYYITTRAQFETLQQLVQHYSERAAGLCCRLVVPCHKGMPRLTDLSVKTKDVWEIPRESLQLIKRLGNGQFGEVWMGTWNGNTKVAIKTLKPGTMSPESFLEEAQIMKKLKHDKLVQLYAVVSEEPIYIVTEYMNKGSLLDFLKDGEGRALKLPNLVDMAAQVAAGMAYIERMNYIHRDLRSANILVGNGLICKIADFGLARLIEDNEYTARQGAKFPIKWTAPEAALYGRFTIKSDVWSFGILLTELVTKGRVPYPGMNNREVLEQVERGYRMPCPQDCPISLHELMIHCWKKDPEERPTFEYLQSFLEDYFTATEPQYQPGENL

With `CN(C(=O)CN1CCOCC1)c1ccc2sc3c(-c4cccc5c(=O)cc(N6CC7CCC(C6)O7)oc45)cccc3c2c1` [NU5455], the inhibition at 1 µM was found to be 3.3%.
